{"source": "PubChem BioAssay (NCI)", "test_in_all_cases": "growth of human tumour cells (NCI), 48 h", "key": {"RPMI-8226 leukemia": {"tested_on": "RPMI-8226 leukemia"}, "OVCAR-4 ovarian": {"tested_on": "OVCAR-4 ovarian"}, "SF-539 CNS": {"tested_on": "SF-539 CNS"}, "SF-295 CNS": {"tested_on": "SF-295 CNS"}, "NCI/ADR-RES ovarian": {"tested_on": "NCI/ADR-RES ovarian"}, "SNB-75 CNS": {"tested_on": "SNB-75 CNS"}, "NCI-H23 lung": {"tested_on": "NCI-H23 lung"}, "ACHN renal": {"tested_on": "ACHN renal"}, "UO-31 renal": {"tested_on": "UO-31 renal"}, "MALME-3M melanoma": {"tested_on": "MALME-3M melanoma"}, "SK-MEL-2 melanoma": {"tested_on": "SK-MEL-2 melanoma"}, "DU-145 prostate": {"tested_on": "DU-145 prostate"}, "HCT-15 colon": {"tested_on": "HCT-15 colon"}, "T-47D breast": {"tested_on": "T-47D breast"}, "A549 NSCLC": {"tested_on": "A549 NSCLC"}, "PC-3 prostate": {"tested_on": "PC-3 prostate"}, "HT29 colon": {"tested_on": "HT29 colon"}, "SN12C renal": {"tested_on": "SN12C renal"}, "NCI-H522 lung": {"tested_on": "NCI-H522 lung"}, "KM12 colon": {"tested_on": "KM12 colon"}, "SK-MEL-28 melanoma": {"tested_on": "SK-MEL-28 melanoma"}, "HCT-116 colon": {"tested_on": "HCT-116 colon"}, "U251 CNS": {"tested_on": "U251 CNS"}, "SR leukemia": {"tested_on": "SR leukemia"}, "OVCAR-3 ovarian": {"tested_on": "OVCAR-3 ovarian"}, "SF-268 CNS": {"tested_on": "SF-268 CNS"}, "UACC-62 melanoma": {"tested_on": "UACC-62 melanoma"}, "SNB-19 CNS": {"tested_on": "SNB-19 CNS"}, "NCI-H460 lung": {"tested_on": "NCI-H460 lung"}}, "note": "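Five concentrations, 48 hours, 96-well plates. GI50 marks 50% less growth. TGI: total growth inhibition.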", "data": [{"smiles": "FC(F)(F)c1ccc(-c2cncn2-c2ccccc2)cc1", "values": [{"measurement": "GI50", "setting": "RPMI-8226 leukemia", "result": 5.75, "unit": "µM"}, {"measurement": "TGI", "setting": "RPMI-8226 leukemia", "result": 27.2, "unit": "µM"}, {"measurement": "GI50", "setting": "OVCAR-4 ovarian", "result": 36, "unit": "µM"}, {"measurement": "TGI", "setting": "OVCAR-4 ovarian", "result": "> 100", "unit": "µM"}, {"measurement": "GI50", "setting": "SF-539 CNS", "result": 15.6, "unit": "µM"}, {"measurement": "TGI", "setting": "SF-539 CNS", "result": 41.8, "unit": "µM"}, {"measurement": "GI50", "setting": "SF-295 CNS", "result": 19.3, "unit": "µM"}, {"measurement": "TGI", "setting": "SF-295 CNS", "result": "> 100", "unit": "µM"}, {"measurement": "GI50", "setting": "NCI/ADR-RES ovarian", "result": 7.13, "unit": "µM"}, {"measurement": "TGI", "setting": "NCI/ADR-RES ovarian", "result": 30.2, "unit": "µM"}, {"measurement": "GI50", "setting": "SNB-75 CNS", "result": 15.3, "unit": "µM"}, {"measurement": "TGI", "setting": "SNB-75 CNS", "result": 40.7, "unit": "µM"}, {"measurement": "GI50", "setting": "NCI-H23 lung", "result": 10.4, "unit": "µM"}, {"measurement": "TGI", "setting": "NCI-H23 lung", "result": 34.4, "unit": "µM"}, {"measurement": "GI50", "setting": "ACHN renal", "result": 3.68, "unit": "µM"}, {"measurement": "TGI", "setting": "ACHN renal", "result": 23, "unit": "µM"}, {"measurement": "GI50", "setting": "UO-31 renal", "result": 4.59, "unit": "µM"}, {"measurement": "TGI", "setting": "UO-31 renal", "result": 21.5, "unit": "µM"}, {"measurement": "GI50", "setting": "MALME-3M melanoma", "result": 21.1, "unit": "µM"}, {"measurement": "TGI", "setting": "MALME-3M melanoma", "result": 43.1, "unit": "µM"}, {"measurement": "GI50", "setting": "SK-MEL-2 melanoma", "result": 18.2, "unit": "µM"}, {"measurement": "TGI", "setting": "SK-MEL-2 melanoma", "result": 37.9, "unit": "µM"}, {"measurement": "GI50", "setting": "DU-145 prostate", "result": 6.28, "unit": "µM"}, {"measurement": "TGI", "setting": "DU-145 prostate", "result": 26.2, "unit": "µM"}, {"measurement": "GI50", "setting": "HCT-15 colon", "result": 18.1, "unit": "µM"}, {"measurement": "TGI", "setting": "HCT-15 colon", "result": "> 100", "unit": "µM"}, {"measurement": "GI50", "setting": "T-47D breast", "result": 15.5, "unit": "µM"}, {"measurement": "TGI", "setting": "T-47D breast", "result": "> 100", "unit": "µM"}, {"measurement": "GI50", "setting": "A549 NSCLC", "result": 11.9, "unit": "µM"}, {"measurement": "TGI", "setting": "A549 NSCLC", "result": 27.5, "unit": "µM"}, {"measurement": "GI50", "setting": "PC-3 prostate", "result": 13, "unit": "µM"}, {"measurement": "TGI", "setting": "PC-3 prostate", "result": 35.6, "unit": "µM"}, {"measurement": "GI50", "setting": "HT29 colon", "result": 21.3, "unit": "µM"}, {"measurement": "TGI", "setting": "HT29 colon", "result": "> 100", "unit": "µM"}, {"measurement": "GI50", "setting": "SN12C renal", "result": 10.4, "unit": "µM"}, {"measurement": "TGI", "setting": "SN12C renal", "result": 23.5, "unit": "µM"}, {"measurement": "GI50", "setting": "NCI-H522 lung", "result": 8.54, "unit": "µM"}, {"measurement": "TGI", "setting": "NCI-H522 lung", "result": 25.2, "unit": "µM"}, {"measurement": "GI50", "setting": "KM12 colon", "result": 20.6, "unit": "µM"}, {"measurement": "TGI", "setting": "KM12 colon", "result": 70.8, "unit": "µM"}, {"measurement": "GI50", "setting": "SK-MEL-28 melanoma", "result": 39.1, "unit": "µM"}, {"measurement": "TGI", "setting": "SK-MEL-28 melanoma", "result": "> 100", "unit": "µM"}, {"measurement": "GI50", "setting": "HCT-116 colon", "result": 1.88, "unit": "µM"}, {"measurement": "TGI", "setting": "HCT-116 colon", "result": 16.3, "unit": "µM"}, {"measurement": "GI50", "setting": "U251 CNS", "result": 6.89, "unit": "µM"}, {"measurement": "TGI", "setting": "U251 CNS", "result": 30.6, "unit": "µM"}, {"measurement": "GI50", "setting": "SR leukemia", "result": 1.18, "unit": "µM"}, {"measurement": "TGI", "setting": "SR leukemia", "result": 7.89, "unit": "µM"}, {"measurement": "GI50", "setting": "OVCAR-3 ovarian", "result": 16.6, "unit": "µM"}, {"measurement": "TGI", "setting": "OVCAR-3 ovarian", "result": 38.9, "unit": "µM"}, {"measurement": "GI50", "setting": "SF-268 CNS", "result": 36.6, "unit": "µM"}, {"measurement": "TGI", "setting": "SF-268 CNS", "result": "> 100", "unit": "µM"}, {"measurement": "GI50", "setting": "UACC-62 melanoma", "result": 11.2, "unit": "µM"}, {"measurement": "TGI", "setting": "UACC-62 melanoma", "result": 24.9, "unit": "µM"}, {"measurement": "GI50", "setting": "SNB-19 CNS", "result": 10.4, "unit": "µM"}, {"measurement": "TGI", "setting": "SNB-19 CNS", "result": 38.5, "unit": "µM"}, {"measurement": "GI50", "setting": "NCI-H460 lung", "result": 16.9, "unit": "µM"}]}]}
